Tested on: MV-4-11 cells
Assay: Gene expression microarray analysis (Affymetrix PrimeView) and GSEA
Assay type: cell-based, human
Parameters: RFU PODN (11730768_x_at) / Fold change /veh PODN (11730768_x_at) / RFU LINC00158 (11744669_a_at) / Fold change /veh LINC00158 (11744669_a_at) / RFU DUSP10 (11751237_a_at) / Fold change /veh DUSP10 (11751237_a_at) / RFU ID3 (11757404_x_at) / Fold change /veh ID3 (11757404_x_at) / RFU PLEKHG5 (11737974_s_at) / Fold change /veh PLEKHG5 (11737974_s_at) / RFU LRRC4B (11730491_at) / Fold change /veh LRRC4B (11730491_at) / RFU GIMAP4 (11747438_a_at) / Fold change /veh GIMAP4 (11747438_a_at) / RFU KRT8 (11758183_x_at) / Fold change /veh KRT8 (11758183_x_at) / RFU CNN1 (11734310_a_at) / Fold change /veh CNN1 (11734310_a_at) / RFU VPS37D (11726825_at) / Fold change /veh VPS37D (11726825_at) / RFU C10orf10 (11716522_x_at) / Fold change /veh C10orf10 (11716522_x_at) / RFU KIR2DL2 /// KIR2DL4 /// KIR2DL5A /// KIR2DL5B /// KIR2DS1 /// KIR2DS2 /// KIR2DS3 /// KIR2DS4 /// KIR3DL3 /// KIR3DL3 /// KIR3DS1 (11738374_at) / Fold change /veh KIR2DL2 /// KIR2DL4 /// KIR2DL5A /// KIR2DL5B /// KIR2DS1 /// KIR2DS2 /// KIR2DS3 /// KIR2DS4 /// KIR3DL3 /// KIR3DL3 /// KIR3DS1 (11738374_at) / RFU C1QL1 (11718748_at) / Fold change /veh C1QL1 (11718748_at) / RFU TMPRSS4 (11747572_a_at) / Fold change /veh TMPRSS4 (11747572_a_at) / RFU HAMP (11756126_x_at) / Fold change /veh HAMP (11756126_x_at) / RFU RNFT2 (11725882_a_at) / Fold change /veh RNFT2 (11725882_a_at) / RFU NR4A2 (11747474_a_at) / Fold change /veh NR4A2 (11747474_a_at) / RFU ABCC12 (11746883_a_at) / Fold change /veh ABCC12 (11746883_a_at) / RFU TMEM136 (11760407_x_at) / Fold change /veh TMEM136 (11760407_x_at) / RFU CLDN22 /// WWC2 (11732394_at) / Fold change /veh CLDN22 /// WWC2 (11732394_at) / RFU HLA-DPB1 (11760878_x_at) / Fold change /veh HLA-DPB1 (11760878_x_at) / RFU SPINT1 (11716480_a_at) / Fold change /veh SPINT1 (11716480_a_at) / RFU GAP43 (11754022_s_at) / Fold change /veh GAP43 (11754022_s_at) / RFU A4GNT (11735810_at) / Fold change /veh A4GNT (11735810_at) / RFU PRB3 (11715151_x_at) / Fold change /veh PRB3 (11715151_x_at) / RFU TUBB4B (11761932_at) / Fold change /veh TUBB4B (11761932_at) / RFU CAPN14 (11732068_a_at) / Fold change /veh CAPN14 (11732068_a_at) / RFU TMCC2 (11721928_a_at) / Fold change /veh TMCC2 (11721928_a_at) / RFU IRGQ (11745062_a_at) / Fold change /veh IRGQ (11745062_a_at) / RFU FAM174B (11720279_a_at) / Fold change /veh FAM174B (11720279_a_at) / RFU TMPRSS4 (11748680_a_at) / Fold change /veh TMPRSS4 (11748680_a_at) / RFU FAM212B (11763350_a_at) / Fold change /veh FAM212B (11763350_a_at) / RFU PLEKHG5 (11743358_a_at) / Fold change /veh PLEKHG5 (11743358_a_at) / RFU ZSCAN30 (11745921_a_at) / Fold change /veh ZSCAN30 (11745921_a_at) / RFU CMKLR1 (11741424_a_at) / Fold change /veh CMKLR1 (11741424_a_at) / RFU LOC101060620 /// MAPK8IP1 (11723275_at) / Fold change /veh LOC101060620 /// MAPK8IP1 (11723275_at) / RFU SPTSSB (11747773_x_at) / Fold change /veh SPTSSB (11747773_x_at) / RFU PRSS12 (11739890_at) / Fold change /veh PRSS12 (11739890_at) / RFU BIN1 (11741810_x_at) / Fold change /veh BIN1 (11741810_x_at) / RFU WNT11 (11732464_a_at) / Fold change /veh WNT11 (11732464_a_at) / RFU C10orf10 (11716521_a_at) / Fold change /veh C10orf10 (11716521_a_at) / RFU C5orf56 (11738089_at) / Fold change /veh C5orf56 (11738089_at) / RFU CYB561 (11721691_x_at) / Fold change /veh CYB561 (11721691_x_at) / RFU ANKRD19P (11752326_a_at) / Fold change /veh ANKRD19P (11752326_a_at) / RFU OR2T12 /// OR2T33 /// OR2T8 (11738714_s_at) / Fold change /veh OR2T12 /// OR2T33 /// OR2T8 (11738714_s_at) / RFU VCAN (11748164_a_at) / Fold change /veh VCAN (11748164_a_at) / RFU JSRP1 (11732532_at) / Fold change /veh JSRP1 (11732532_at) / RFU KRTAP10-11 (11738290_x_at) / Fold change /veh KRTAP10-11 (11738290_x_at) / RFU MYO3A (11730013_a_at) / Fold change /veh MYO3A (11730013_a_at) / RFU EBF3 (11725865_a_at) / Fold change /veh EBF3 (11725865_a_at) / RFU CAMK2N1 (11719241_x_at) / Fold change /veh CAMK2N1 (11719241_x_at) / RFU C5orf56 (11738088_a_at) / Fold change /veh C5orf56 (11738088_a_at) / RFU OLFML3 (11715873_a_at) / Fold change /veh OLFML3 (11715873_a_at) / RFU LOC100653217 /// NTM (11731650_a_at) / Fold change /veh LOC100653217 /// NTM (11731650_a_at) / RFU MAPK11 (11762145_a_at) / Fold change /veh MAPK11 (11762145_a_at) / RFU FIZ1 (11724087_x_at) / Fold change /veh FIZ1 (11724087_x_at) / RFU OASL (11726364_x_at) / Fold change /veh OASL (11726364_x_at) / RFU SOX15 (11748057_x_at) / Fold change /veh SOX15 (11748057_x_at) / RFU CD79A (11719716_a_at) / Fold change /veh CD79A (11719716_a_at) / RFU HIST1H1D (11736915_at) / Fold change /veh HIST1H1D (11736915_at) / RFU CASKIN2 (11723855_a_at) / Fold change /veh CASKIN2 (11723855_a_at) / RFU LOC730098 (11760151_x_at) / Fold change /veh LOC730098 (11760151_x_at) / RFU OR4N2 (11742367_at) / Fold change /veh OR4N2 (11742367_at) / RFU PRRT2 (11749266_a_at) / Fold change /veh PRRT2 (11749266_a_at) / RFU SNX32 (11753110_a_at) / Fold change /veh SNX32 (11753110_a_at) / RFU CDHR5 (11726645_a_at) / Fold change /veh CDHR5 (11726645_a_at) / RFU RCAN1 (11760418_a_at) / Fold change /veh RCAN1 (11760418_a_at) / RFU FAM167A (11723789_a_at) / Fold change /veh FAM167A (11723789_a_at) / RFU FAM26E (11764081_at) / Fold change /veh FAM26E (11764081_at) / RFU ISYNA1 (11749810_s_at) / Fold change /veh ISYNA1 (11749810_s_at) / RFU ACY1 (11761880_at) / Fold change /veh ACY1 (11761880_at) / RFU 11764098_at / Fold change /veh 11764098_at / RFU SAMD14 (11745864_x_at) / Fold change /veh SAMD14 (11745864_x_at) / RFU NPB (11741838_a_at) / Fold change /veh NPB (11741838_a_at) / RFU TMPRSS6 (11731388_a_at) / Fold change /veh TMPRSS6 (11731388_a_at) / RFU KRTAP10-2 (11738614_at) / Fold change /veh KRTAP10-2 (11738614_at) / RFU ARHGAP8 /// PRR5-ARHGAP8 (11727945_x_at) / Fold change /veh ARHGAP8 /// PRR5-ARHGAP8 (11727945_x_at) / RFU KRTAP5-7 /// NADSYN1 (11734609_at) / Fold change /veh KRTAP5-7 /// NADSYN1 (11734609_at) / RFU RASL12 (11751679_a_at) / Fold change /veh RASL12 (11751679_a_at) / RFU CDKN2B (11736163_a_at) / Fold change /veh CDKN2B (11736163_a_at) / RFU PRF1 (11729649_at) / Fold change /veh PRF1 (11729649_at) / RFU, ZNF638 /// ZNF638-IT1 / Fold change vs veh, ZNF638 /// ZNF638-IT1 / RFU, PANK3 / Fold change vs veh, PANK3 / RFU, SH3YL1 / Fold change vs veh, SH3YL1 / RFU, ZEB2 / Fold change vs veh, ZEB2 / RFU, NRIP1 / Fold change vs veh, NRIP1 / RFU, PTTG1IP / Fold change vs veh, PTTG1IP / RFU, CAPN2 / Fold change vs veh, CAPN2 / RFU, MED14 / Fold change vs veh, MED14 / RFU, SNORA58 / Fold change vs veh, SNORA58 / RFU, C1orf63 / Fold change vs veh, C1orf63 / RFU, LRRFIP1 / Fold change vs veh, LRRFIP1 / RFU, NDUFAF7 / Fold change vs veh, NDUFAF7 / RFU, SLC12A2 / Fold change vs veh, SLC12A2 / RFU, IBTK / Fold change vs veh, IBTK / RFU, ESF1 / Fold change vs veh, ESF1 / Fold change vs veh, TMEM50B / RFU, TAOK1 / Fold change vs veh, TAOK1 / RFU, ACBD3 / Fold change vs veh, ACBD3 / RFU, TMA16 / Fold change vs veh, TMA16 / RFU, RWDD3 / Fold change vs veh, RWDD3 / RFU, BCAT1 / Fold change vs veh, BCAT1 / RFU, EDEM3 / Fold change vs veh, EDEM3 / RFU, TMEM33 / Fold change vs veh, TMEM33 / RFU, WDR75 / Fold change vs veh, WDR75 / RFU, AHCTF1 / Fold change vs veh, AHCTF1 / RFU, TFRC / Fold change vs veh, TFRC / RFU, ZDHHC17 / Fold change vs veh, ZDHHC17 / RFU, NOM1 / Fold change vs veh, NOM1 / RFU, ARL8B / Fold change vs veh, ARL8B / RFU, ZBTB11 / Fold change vs veh, ZBTB11 / RFU, TAMM41 / Fold change vs veh, TAMM41 / RFU, KIAA1704 /// LOC100996395 / Fold change vs veh, KIAA1704 /// LOC100996395 / RFU, ING1 / Fold change vs veh, ING1 / RFU, TRMT61B / Fold change vs veh, TRMT61B / RFU, FUBP3 / Fold change vs veh, FUBP3 / RFU, TP53 / Fold change vs veh, TP53 / RFU, TNKS2 / Fold change vs veh, TNKS2 / RFU, ZFP14 / Fold change vs veh, ZFP14 / RFU, ACTR2 / Fold change vs veh, ACTR2 / RFU, PPP3R1 / Fold change vs veh, PPP3R1 / RFU, PIK3R1 / Fold change vs veh, PIK3R1 / RFU, HNRNPA1 / Fold change vs veh, HNRNPA1 / RFU, RNF170 / Fold change vs veh, RNF170 / RFU, ZNF28 / Fold change vs veh, ZNF28 / RFU, RNGTT / Fold change vs veh, RNGTT / RFU, OGT / Fold change vs veh, OGT / RFU, BRD1 / Fold change vs veh, BRD1 / RFU, MARS / Fold change vs veh, MARS / RFU, ZNF655 / Fold change vs veh, ZNF655 / RFU, FAHD1 / Fold change vs veh, FAHD1 / RFU, BDP1 / Fold change vs veh, BDP1 / RFU, LRRCC1 / Fold change vs veh, LRRCC1 / RFU, ARID1A / Fold change vs veh, ARID1A / RFU, ZNF146 / Fold change vs veh, ZNF146 / RFU, ZNF330 / Fold change vs veh, ZNF330 / RFU, GPN3 / Fold change vs veh, GPN3 / RFU, C9orf123 / Fold change vs veh, C9orf123 / RFU, N4BP2L2 / Fold change vs veh, N4BP2L2 / RFU, ARFIP1 / Fold change vs veh, ARFIP1 / RFU, FAM179B / Fold change vs veh, FAM179B / RFU, BCL10 / Fold change vs veh, BCL10 / RFU, UHRF1BP1L / Fold change vs veh, UHRF1BP1L / RFU, BET1 / Fold change vs veh, BET1 / RFU, CNOT2 / Fold change vs veh, CNOT2 / RFU, ZNF268 / Fold change vs veh, ZNF268 / Fold change vs veh, ZNF507 / RFU, DGCR2 / Fold change vs veh, DGCR2 / RFU, WDSUB1 / Fold change vs veh, WDSUB1 / Fold change vs veh, HSP90B1 /// MIR3652 / RFU, ADSS / Fold change vs veh, ADSS / RFU, GK / Fold change vs veh, GK / RFU, ZNF148 / Fold change vs veh, ZNF148 / RFU, TAF9 / Fold change vs veh, TAF9 / RFU, SLC1A5 / Fold change vs veh, SLC1A5 / RFU, SLMO2 / Fold change vs veh, SLMO2 / RFU, ABCC4 / Fold change vs veh, ABCC4 / RFU, LOC101060439 /// RAP1B / Fold change vs veh, LOC101060439 /// RAP1B / RFU, RFX7 / Fold change vs veh, RFX7 / RFU, GTPBP10 / Fold change vs veh, GTPBP10 / RFU, CNEP1R1 / Fold change vs veh, CNEP1R1 / RFU, BIVM-ERCC5 /// ERCC5 / Fold change vs veh, BIVM-ERCC5 /// ERCC5 / RFU, ILF3 / Fold change vs veh, ILF3 / RFU 11762660_at / Fold change /veh 11762660_at / RFU VCAN (11757783_s_at) / Fold change /veh VCAN (11757783_s_at) / RFU DDX43 (11728927_at) / Fold change /veh DDX43 (11728927_at) / RFU KRT8 (11758188_x_at) / Fold change /veh KRT8 (11758188_x_at) / RFU NKD1 (11759106_at) / Fold change /veh NKD1 (11759106_at) / RFU SRD5A1 (11742802_a_at) / Fold change /veh SRD5A1 (11742802_a_at) / RFU TPSAB1 /// TPSB2 (11721975_s_at) / Fold change /veh TPSAB1 /// TPSB2 (11721975_s_at) / RFU GSTM3 (11746129_a_at) / Fold change /veh GSTM3 (11746129_a_at) / RFU IL23R (11737362_x_at) / Fold change /veh IL23R (11737362_x_at) / RFU TMEM51 (11727254_a_at) / Fold change /veh TMEM51 (11727254_a_at) / RFU PIWIL2 (11732686_x_at) / Fold change /veh PIWIL2 (11732686_x_at) / RFU ORM1 (11744905_x_at) / Fold change /veh ORM1 (11744905_x_at) / RFU CCDC152 (11743942_at) / Fold change /veh CCDC152 (11743942_at) / RFU ECM1 (11717891_a_at) / Fold change /veh ECM1 (11717891_a_at) / RFU IL23R (11748794_a_at) / Fold change /veh IL23R (11748794_a_at) / RFU TNFAIP8L3 (11732012_x_at) / Fold change /veh TNFAIP8L3 (11732012_x_at) / RFU MBOAT4 (11741988_at) / Fold change /veh MBOAT4 (11741988_at) / RFU 11764193_at / Fold change /veh 11764193_at / RFU TMEM53 (11763286_at) / Fold change /veh TMEM53 (11763286_at) / RFU MAGEB2 (11727129_at) / Fold change /veh MAGEB2 (11727129_at) / RFU TMEM200A (11744735_a_at) / Fold change /veh TMEM200A (11744735_a_at) / RFU CCDC152 (11751479_a_at) / Fold change /veh CCDC152 (11751479_a_at) / RFU FAM211A (11726209_a_at) / Fold change /veh FAM211A (11726209_a_at) / RFU RGS16 (11746705_a_at) / Fold change /veh RGS16 (11746705_a_at) / RFU VCAN (11755009_s_at) / Fold change /veh VCAN (11755009_s_at) / RFU RHOB (11743442_s_at) / Fold change /veh RHOB (11743442_s_at) / RFU RGS16 (11720943_a_at) / Fold change /veh RGS16 (11720943_a_at) / RFU RGS16 (11720944_at) / Fold change /veh RGS16 (11720944_at) / RFU, VPS4B / Fold change vs veh, VPS4B / RFU, CREB1 / Fold change vs veh, CREB1 / RFU, DNAJC13 / Fold change vs veh, DNAJC13 / RFU, GNAQ / Fold change vs veh, GNAQ / RFU, CDK5R1 / Fold change vs veh, CDK5R1 / RFU, ZRANB3 / Fold change vs veh, ZRANB3 / RFU, CUL4A / Fold change vs veh, CUL4A / RFU, CCNY / Fold change vs veh, CCNY / RFU, UFL1 / Fold change vs veh, UFL1 / RFU, COG3 / Fold change vs veh, COG3 / RFU, DIAPH2 / Fold change vs veh, DIAPH2 / RFU, SKA2 / Fold change vs veh, SKA2 / RFU, AFF3 / Fold change vs veh, AFF3 / RFU, LMF1 / Fold change vs veh, LMF1 / RFU, IPO11 / Fold change vs veh, IPO11 / RFU, DFFB / Fold change vs veh, DFFB / RFU, FOXP1 / Fold change vs veh, FOXP1 / RFU, CARD8 / Fold change vs veh, CARD8 / RFU, STRN3 / Fold change vs veh, STRN3 / RFU, ADK / Fold change vs veh, ADK / RFU, RASSF2 / Fold change vs veh, RASSF2 / RFU, WIPF1 / Fold change vs veh, WIPF1 / RFU, LARP1B / Fold change vs veh, LARP1B / RFU, RASA1 / Fold change vs veh, RASA1 / RFU, RB1 / Fold change vs veh, RB1 / RFU, PPFIA1 / Fold change vs veh, PPFIA1 / RFU, MAT2A / Fold change vs veh, MAT2A / RFU, CCT5 / Fold change vs veh, CCT5 / RFU, WDR92 / Fold change vs veh, WDR92 / RFU, CUX1 / Fold change vs veh, CUX1 / RFU, TTC7A / Fold change vs veh, TTC7A / RFU, TMEM135 / Fold change vs veh, TMEM135 / RFU, DEPTOR / Fold change vs veh, DEPTOR / RFU, CPM / Fold change vs veh, CPM / RFU, DNAJB6 / Fold change vs veh, DNAJB6 / RFU, CACNA2D3 / Fold change vs veh, CACNA2D3 / RFU, DTX4 / Fold change vs veh, DTX4 / RFU, TFCP2 / Fold change vs veh, TFCP2 / RFU, GMCL1 /// GMCL1P1 / Fold change vs veh, GMCL1 /// GMCL1P1 / RFU, AEBP2 / Fold change vs veh, AEBP2 / RFU, SNHG1 /// SNORD22 /// SNORD25 /// SNORD26 /// SNORD27 /// SNORD28 /// SNORD29 /// SNORD31 / Fold change vs veh, SNHG1 /// SNORD22 /// SNORD25 /// SNORD26 /// SNORD27 /// SNORD28 /// SNORD29 /// SNORD31 / Fold change (Aza/veh), C12orf56 (ProbeSet 11735607_a_at) / Fold change (ACY-1035/veh), C12orf56 (ProbeSet 11735607_a_at) / Fold change (Aza/veh), FGFR1OP (ProbeSet 11751329_s_at) / Fold change (ACY-1035/veh), FGFR1OP (ProbeSet 11751329_s_at) / Fold change (Aza/veh), VPS36 (ProbeSet 11739960_a_at) / Fold change (ACY-1035/veh), VPS36 (ProbeSet 11739960_a_at) / RFU SYPL1 (11715823_x_at) / Fold change /veh SYPL1 (11715823_x_at) / RFU IGFBP7 (11715501_s_at) / Fold change /veh IGFBP7 (11715501_s_at) / RFU REEP3 (11722064_at) / Fold change /veh REEP3 (11722064_at) / RFU IGLL1 (11728026_x_at) / Fold change /veh IGLL1 (11728026_x_at): dose or concentration left out as unconfirmed
Settings: MV-4-11 cells, 48 hours

## Nc1ccc(-c2cccs2)cc1NC(=O)c1ccc2c(c1)cc(C1CC1)n2CCN1CCOCC1 [ACY-1035]
  Fold change /veh RGS16 (11720943_a_at): 0.99
